Experiments:
[1] = system: gastric corpus mucosa cells; experiment: MTT: Cell Damaging and Protecting Effect Test; format: cell-based, male Japanese White rabbit; conditions: rabbit gastric mucosa cells, 10^-4 M, 4 hours; smaller value is better; 100 µM
Source text: MTT: Cell Damaging and Protecting Effect Test
It is confirmed that there is no toxicity in cell level. Those having toxicity in cell level are inappropriate as an anti-ulcer drug.
A male Japanese White rabbit (2.5 to 3 kg) was anesthetized to death by Nembutal™ and, immediately thereafter, its stomach was removed. The greater curvature of the stomach was incised so as to remove the stomach contents therefrom. After the mucosal surface was washed with HBSS (Hank's Balanced Salt Solution), the stomach in ice-cooled HBSS was transferred to a laboratory. Then, after the pyloric antrum was removed, the gastric corpus mucosa was separated by a spatula and then minced into 2 to 3 mm pieces in BME (Basal Medium Eagle). Thereafter, these pieces were shaken at 120 to 130 cycles/minute for 15 minutes at 37° C. in BME 60 ml containing 280 U/ml of dispase and 30 to 50 U/mil of collagenase. Here, the concentration of collagenase was appropriately changed for each lot in view of the state of cells. The pieces were washed twice with EBSS (Earle's Balanced Salt Solution) containing 1 mM of EDTA and then shaken in MEM (Minimum Essential Medium) containing 1 mM of EDTA at 37° C. for 5 minutes. Subsequently, they were shaken in the dispase and collagenase having the same concentrations as those mentioned above for 15 minutes so as to remove the supernatant and then further shaken at 37° C. for 50 to 60 minutes at 120 to 130 cycles/minute. Then, after being washed twice with HBSS, Ham F12 containing 2% of Ultrocer G™ was used to attain the concentration of 1×10^6 cells/ml. Thus formed suspension was dispensed in each well of a 96-well plate by 200 μl. The plate was incubated in the atmosphere composed of 5% CO2 and 95% air at 37° C. for three days so as to attain a confluent state and then subjected to MTT assay.
The sample compound was dissolved in DMSO so as to attain a concentration of 10^-2 M and then diluted with HBSS containing 2% of Ultrocer G™ so as to attain a final concentration of 10^-4 M. To each group, which 8 wells were used for, 10 μl of MTT reagent was added immediately after 100 μl of the medium in each well was exchanged for same volume of the resulting solution of the sample compound. After being incubated in an atmosphere composed of 5% CO2 and 95% air at 37° C. for 4 hours, thus formed solution was centrifuged and then its supernatant was discarded. Subsequently, 100 μl of 100% ethanol was added to the residue so as to dissolve MTT formazan. Then, the absorbance (OD: 570 to 630) was measured by a microplate reader. This method utilizes a phenomenon in which MTT is changed to MTT formazan only by mitochondria of living cells so as to change color.
The cell damaging or cell protecting effect of the sample compound at the final concentration of 10^-4 M was expressed as cell damaging rate (%) as follows:
cell damaging rate (%)={1-(absorbance in sample group/absorbance in control group)}×100
Accordingly, the smaller value is better in the cell damaging rate.

[2] = system: Slc:ICR mice; parameters: species or system Male Slc:ICR mice; conditions: mouse, in vivo
Procedure: AT: Single Dose Toxicity Pretest
Male Slc:ICR mice (5-week-old) were used. Each group has 3 to 5 mice and each mouse was fasted, but allowed free access to water, for 4 to 5 hours from 9 a.m. in the test day. Then, 2,000 mg/10 ml/kg of the sample compound dissolved or suspended in an aqueous solution of 0.5% sodium carboxymethylcellulose was orally administered thereto. To a control, only the vehicle was administered. […] The body weight was measured before and after the fasting as well as at the same time everyday. The dead animals were immediately subjected to autopsy and their organs were observed by naked eyes. Also, the living animals were sacrificed with ether or carbon dioxide one week after the administration and then their organs were observed by naked eyes.
The toxicity at the single dose of 2,000 mg/kg of the sample compound was expressed as being classified into 5 levels.
5: Mortality rate is 0%; no toxicity is found at all both in behavior and organs.
4: Mortality rate is 0%; while no toxicity is found in organs, slight toxicity is observed in behavior and body weight increase.
3: While there is a dead animal (though not all the animals are dead), no toxicity is found in organs.
2: Regardless of whether there is a dead animal or not, toxicity is found in organs.
1: All the animals are dead.

[3] = system: histamine-stimulated gastric acid secretion (pylorus-ligated rats); experiment: VOL, TAO: Acid Secretion Inhibition Test in vivo; parameters: species or system Male Crj:Donryu rats; conditions: rat, 100 mg/kg orally, histamine 30 mg/kg s.c.
Procedure: VOL, TAO: Acid Secretion Inhibition Test in vivo
Inhibitory effect on acid secretion in vivo is confirmed.
Male Crj:Donryu rats (7-week-old) were fasted overnight but allowed free access to water. In each group, 8 to 10 of these rats were used under urethane anesthesia (1.25 g/kg). The sample compound dissolved or suspended in an aqueous solution of 0.5% sodium carboxymethylcellulose or 0.05% Tween 80 was orally administered (100 mg/10 ml/kg). 30 minutes later, the abdomen of each was incised and the pylorus was ligated. 30 minutes after the ligation, 30 mg/kg of histamine dissolved in physiological saline was subcutaneously administered and, 3 hours thereafter, the rat was sacrificed with carbon dioxide. Immediately thereafter, each stomach was removed and the gastric contents were collected and each volume was determined. The total acid output was determined by titration of the gastric juice with 0.1N NaOH.
With respect to the gastric juice volume (VOL) and the total acid output (TAO), the effects obtained when 100 mg/kg of the sample compound had been administered were expressed as their respective inhibitory rates (%) as follows:
each inhibitory rate (%) {1-(value in sample group/value in control group)}×100

| Compound | MTT: cell damaging rate [1] | AT: toxicity at the single dose (5 levels) [2] | TAO: total acid output inhibitory rate [3] | VOL: gastric juice volume inhibitory rate [3] |
| --- | --- | --- | --- | --- |
| CC(C)c1ccc(C(=O)Nc2nnc(SCCN(C(C)C)C(C)C)s2)cc1 [Example 2, 2-(4-isopropylbenzoyl)amino-5-diisopropylaminoethylthio-1,3,4-thiadiazole] | -77% | 5 | – | – |
| CCN(CC)CCSc1nnc(NC(=O)c2ccc(OC/C=C(\C)CCC=C(C)C)cc2)s1 [Example 10, 2-(4-geranyloxybenzoyl)amino-5-diethylaminoethylthio-1,3,4-thiadiazole] | – | 5 | 44% | 36% |
| CC(C)=CCC/C(C)=C/COc1ccc(C(=O)Nc2nnc(SCCN3CCCCC3)s2)cc1 [Example 12, 2-(4-geranyloxybenzoyl)amino-5-piperidinoethylthio-1,3,4-thiadiazole] | – | 5 | – | – |
| CC(C)=CCC/C(C)=C/COc1ccc(C(=O)Nc2nnc(SCc3ccccn3)s2)cc1 [Example 14, 2-(4-geranyloxybenzoyl)amino-5-(2-pyridylmethyl)thio-1,3,4-thiadiazole] | – | 5 | – | – |
| CCSc1nnc(NC(=O)c2ccc(OC/C=C(\C)CCC=C(C)C)cc2)s1 [Example 15, 2-(4-geranyloxybenzoyl)amino-5-ethylthio-1,3,4-thiadiazole] | – | 5 | 19% | 10% |

Source: US5912258A, “Thiadiazoleamide derivative and anti-ulcer drug” (Shiseido Co., Ltd., priority 1998, dated 1999)
